# Experimental data taken from US6709647B2, “Antimicrobial deodorant compositions” (Unilever Home & Personal Care USA, a division of Conopco, …, priority 2001, dated 2004).
# Key:
# [1] = tested on: Staphylococcus epidermidis; experiment: Cell suspension kill test in MES buffer, quench, plate count; type: cell-based; details: 50 mM MES pH 6.5; for Bacterial no. After 60 mins. / Bacterial no. Immediate: S. epidermidis suspension, amounts in weight %; for Bacterial no. Immediate: sample removed immediately; for Reduction in bacterial no. / Bacterial no. (concentration of bacteria remaining after 60 minutes): S. epidermidis; for Reduction in bacterial no.: amounts in mM; for Bacterial no. (concentration of bacteria remaining after 60 minutes): Table 6, percarbonate
# Experimental: A cell suspension of Staphylococcus epidermidis in 50 mM MES buffer (2-[N-morpholino]ethanesulfonic acid, Sigma M5287) was prepared to an OD600 nm of 0.022 and equal portions were treated with the components indicated in Table 3, to give the weight percentages also indicated. Samples were removed immediately and after 60 minutes; said samples being decimally diluted in a quench solution (vide infra) and then plated onto a suitable culture medium. The plates were incubated at 37° C. for 48 hours, then read and the bacterial numbers calculated.
# The quench solution used was a solution of:
# in 37.5 mM phosphate buffer, at pH 7.9, containing 0.05% v/v Triton X-100 (iso-octyl phenoxy polyoxyethanol).
# In this Table, the amounts indicated are milliMolar concentrations and the antimicrobial effect is expressed in terms of the reduction in bacterial numbers achieved.
# In these Tables, the amounts indicated are milliMolar concentrations and the antimicrobial effect is expressed in terms of the concentration of bacteria remaining after 60 minutes.
# Corynebacteria = experiment: Cell suspension kill test in MES buffer, quench, plate count (Corynebacteria); type: cell-based; details: amounts in mM; for Bacterial no. After 60 mins.: 50 mM MES pH 6.5, after 60 minutes; for Bacterial no. Immediate: 50 mM MES pH 6.5, sample removed immediately
# Experimental: A cell suspension of Staphylococcus epidermidis in 50 mM MES buffer (2-[N-morpholino]ethanesulfonic acid, Sigma M5287) was prepared to an OD600 nm of 0.022 and equal portions were treated with the components indicated in Table 3, to give the weight percentages also indicated. […] The plates were incubated at 37° C. for 48 hours, then read and the bacterial numbers calculated. The quench solution used was a solution of: in 37.5 mM phosphate buffer, at pH 7.9, containing 0.05% v/v Triton X-100 (iso-octyl phenoxy polyoxyethanol). An analogous experiment to that performed with Example 3, with the modification of using Corynebacteria rather than S. epidermidis, was performed with the components indicated in Table 5. In this Table, the amounts indicated are milliMolar concentrations and the effect is expressed as in Table 3.
compound,measurement,setting,value
"O=C(O)c1ccccn1 [D, Picolinic acid]",Bacterial no. After 60 mins.,[1],6.50 Log10cfu/ml
same,Bacterial no. Immediate,[1],6.60 Log10cfu/ml
"O=C(CCCCCN1C(=O)c2ccccc2C1=O)OO [Example E, phthalimidoperoxy hexanoic acid]",Bacterial no. After 60 mins.,[1],6.50 Log10cfu/ml
same,Bacterial no. Immediate,[1],6.47 Log10cfu/ml
"O=C(O)c1ccccn1 [Example F, Picolinic acid]",Reduction in bacterial no.,[1],<2.59 Log10cfu/ml
"O.O=BO[O-].[Na+] [Example G, Perborate.H2O]",Reduction in bacterial no.,[1],<2.59 Log10cfu/ml
"O=C(O)c1ccccn1 [J, Picolinic acid]",Bacterial no. After 60 mins.,Corynebacteria,6.0 Log10cfu/ml
same,Bacterial no. Immediate,Corynebacteria,6.1 Log10cfu/ml
"OO [K, Hydrogen peroxide]",Bacterial no. After 60 mins.,Corynebacteria,4.6 Log10cfu/ml
same,Bacterial no. Immediate,Corynebacteria,6.1 Log10cfu/ml
"O=C(O)CN(CCN(CC(=O)O)CC(=O)O)CCN(CC(=O)O)CC(=O)O [L, Diethylenetriaminapentaacetic acid]",Bacterial no. After 60 mins.,Corynebacteria,5.9 Log10cfu/ml
same,Bacterial no. Immediate,Corynebacteria,6.0 Log10cfu/ml
"O=C([O-])[O-].O=C([O-])[O-].OO.OO.OO.[Na+].[Na+].[Na+].[Na+] [N, Percarbonate]",Bacterial no. (concentration of bacteria remaining after 60 minutes),[1],6.13 Log10cfu/ml
"O=C([O-])[O-].O=C([O-])[O-].OO.OO.OO.[Na+].[Na+].[Na+].[Na+] [O, Percarbonate]",Bacterial no. (concentration of bacteria remaining after 60 minutes),[1],6.39 Log10cfu/ml
Perborate.4 H2O [Example H],Reduction in bacterial no.,[1],<2.59 Log10cfu/ml
